Source: ChEMBL document CHEMBL1201862, “PubChem BioAssay data set” (2004)
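48-hour exposure; five concentrations; linearly interpolated endpoints. GI50 is the concentration that inhibits growth by half.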 Calls of active or inactive are those of the source. Cut-off read from the data, not from the text of the source: active = GI50 up to about 1.1 µM and inactive = higher.

What was measured:
Assay in all cases: DTP human tumour cell line panel, 48 h
[1] = system: OVCAR-8
[2] = system: Malme-3M
[3] = system: PC-3
[4] = system: SF-295
[5] = system: SW-620
[6] = system: RPMI-8226
[7] = system: MDA-N
[8] = system: SR
[9] = system: SK-MEL-28
[10] = system: T47D
[11] = system: SK-MEL-2
[12] = system: U-251
[13] = system: HCC 2998
[14] = system: IGROV-1
[15] = system: A549
[16] = system: MCF7
[17] = system: SNB-19
[18] = system: LOX IMVI

Which results are given for `C/C(=N\Nc1nc2ccccc2s1)c1cnccn1`?
GI50 [1]: 1.7 µM (inactive); GI50 [2]: 0.505 µM (active); GI50 [3]: 2.12 µM (inactive); GI50 [4]: 2.76 µM (inactive); GI50 [5]: 0.505 µM (active); GI50 [6]: 2.89 µM (inactive); GI50 [7]: 11.4 µM (inactive); GI50 [8]: 0.652 µM (active); GI50 [9]: 9.66 µM (inactive); GI50 [10]: 0.769 µM (active); GI50 [11]: 7.5 µM (inactive); GI50 [12]: 3.67 µM (inactive); GI50 [13]: 7.21 µM (inactive); GI50 [14]: 0.406 µM (active); GI50 [15]: 3.3 µM (inactive); GI50 [16]: 1.52 µM (inactive); GI50 [17]: 3.67 µM (inactive)

Which GI50 [1] does the source give for `CC1CN(CCO)CCN1c1ccccc1` (stereo not drawn) here?
Its GI50 is > 100 µM (inactive).

What about the GI50 [2] of the same compound?
The GI50 was > 100 µM (inactive).

What about the GI50 [3] of the same compound?
Its GI50 is > 100 µM (inactive).

And the GI50 [4]?
Its GI50 is > 100 µM (inactive).

And the GI50 [5]?
Its GI50 is > 100 µM (inactive).

What about the GI50 [6] of the same compound?
The GI50 was > 100 µM (inactive).

What about the GI50 [7] of the same compound?
Its GI50 is > 100 µM (inactive).

And the GI50 [18]?
Its GI50 is > 100 µM (inactive).

And the GI50 [8]?
Its GI50 is > 100 µM (inactive).

And the GI50 [9]?
Its GI50 is > 100 µM (inactive).

What about the GI50 [10] of the same compound?
The GI50 was > 100 µM (inactive).

And the GI50 [11]?
Its GI50 is > 100 µM (inactive).

What about the GI50 [12] of the same compound?
Its GI50 is > 100 µM (inactive).

What about the GI50 [14] of the same compound?
The GI50 was > 100 µM (inactive).

What about the GI50 [15] of the same compound?
Its GI50 is > 100 µM (inactive).

What about the GI50 [16] of the same compound?
The GI50 was > 100 µM (inactive).

What about the GI50 [17] of the same compound?
The GI50 was > 100 µM (inactive).

How did the GI50 [1] turn out when `CC1=NC(=Cc2ccc(O)cc2)C(=O)N1n1c(-c2ccccc2)nc2ccccc2c1=O` was run?
Its GI50 is > 100 µM (inactive).

And the GI50 [2]?
Its GI50 is > 100 µM (inactive).

What about the GI50 [3] of the same compound?
The GI50 was > 100 µM (inactive).

What about the GI50 [4] of the same compound?
The GI50 was > 100 µM (inactive).

What about the GI50 [5] of the same compound?
The GI50 was > 100 µM (inactive).

And the GI50 [6]?
The GI50 was > 100 µM (inactive).

And the GI50 [7]?
Its GI50 is > 100 µM (inactive).

What about the GI50 [18] of the same compound?
The GI50 was > 100 µM (inactive).

And the GI50 [8]?
Its GI50 is > 100 µM (inactive).

And the GI50 [9]?
The GI50 was > 100 µM (inactive).

What about the GI50 [10] of the same compound?
Its GI50 is > 100 µM (inactive).

And the GI50 [13]?
The GI50 was > 100 µM (inactive).

What about the GI50 [14] of the same compound?
Its GI50 is > 100 µM (inactive).

What about the GI50 [15] of the same compound?
The GI50 was > 100 µM (inactive).

And the GI50 [16]?
The GI50 was > 100 µM (inactive).

What about the GI50 [17] of the same compound?
The GI50 was > 100 µM (inactive).

For `O[C@@H]1C=C[C@]23CCN(Cc4cc5c(cc42)OCO5)[C@@H]3C1`, which GI50 [1] is on record?
Its GI50 is 54.1 µM (inactive).

What about the GI50 [2] of the same compound?
Its GI50 is > 100 µM (inactive).

And the GI50 [3]?
The GI50 was 45.2 µM (inactive).

What about the GI50 [4] of the same compound?
The GI50 was 40 µM (inactive).

And the GI50 [5]?
The GI50 was 49 µM (inactive).

And the GI50 [6]?
The GI50 was 50.7 µM (inactive).

And the GI50 [7]?
The GI50 was 69.3 µM (inactive).

And the GI50 [18]?
Its GI50 is 48.4 µM (inactive).

And the GI50 [8]?
Its GI50 is 67.8 µM (inactive).

What about the GI50 [9] of the same compound?
Its GI50 is > 100 µM (inactive).

What about the GI50 [10] of the same compound?
The GI50 was 39.1 µM (inactive).

What about the GI50 [11] of the same compound?
Its GI50 is 31.3 µM (inactive).

And the GI50 [12]?
The GI50 was 41.2 µM (inactive).

And the GI50 [14]?
Its GI50 is 44.3 µM (inactive).

And the GI50 [15]?
The GI50 was 46.6 µM (inactive).

What about the GI50 [16] of the same compound?
Its GI50 is 52.1 µM (inactive).

And the GI50 [17]?
Its GI50 is 43.1 µM (inactive).

Which results are given for `O=C1C=C(c2ccccc2)O/C1=C/C(=O)c1ccc(Cl)cc1`?
GI50 [1]: 23.1 µM (inactive); GI50 [2]: 17.2 µM (inactive); GI50 [3]: 14.2 µM (inactive); GI50 [5]: 11.7 µM (inactive); GI50 [6]: 3.33 µM (inactive); GI50 [7]: 16.1 µM (inactive); GI50 [18]: 13.3 µM (inactive); GI50 [8]: 2.93 µM (inactive); GI50 [9]: 18 µM (inactive); GI50 [10]: > 10 µM (inactive); GI50 [12]: 15.7 µM (inactive); GI50 [13]: 15.4 µM (inactive); GI50 [14]: 18.3 µM (inactive); GI50 [16]: 16.5 µM (inactive); GI50 [17]: 35.5 µM (inactive)

Which results are given for `CC(C)(C)OC(=O)N1C/C=C\C(=O)C2(OCCO2)c2ccccc21`?
GI50 [1]: 24.9 µM (inactive); GI50 [2]: 22.7 µM (inactive); GI50 [3]: 29.4 µM (inactive); GI50 [4]: 26.4 µM (inactive); GI50 [5]: 25.1 µM (inactive); GI50 [6]: 20.4 µM (inactive); GI50 [7]: 20.4 µM (inactive); GI50 [18]: 16.7 µM (inactive); GI50 [8]: 25.8 µM (inactive); GI50 [9]: 22.5 µM (inactive); GI50 [10]: 21.3 µM (inactive); GI50 [11]: 24.5 µM (inactive); GI50 [12]: 29.9 µM (inactive); GI50 [14]: 16.9 µM (inactive); GI50 [15]: 35.2 µM (inactive); GI50 [16]: 31.4 µM (inactive); GI50 [17]: 35.5 µM (inactive)

How did the GI50 [1] turn out when `CCOC(=O)[C@@]12NN=N[C@@H]1[C@H]1CO[C@H](c3ccccc3)N1C2=O` was run?
Its GI50 is 5.68 µM (inactive).

What about the GI50 [2] of the same compound?
The GI50 was 13.3 µM (inactive).

And the GI50 [3]?
Its GI50 is 10.1 µM (inactive).

And the GI50 [4]?
The GI50 was 11.6 µM (inactive).

And the GI50 [5]?
Its GI50 is 7.67 µM (inactive).

What about the GI50 [6] of the same compound?
The GI50 was 3.24 µM (inactive).

And the GI50 [7]?
Its GI50 is 11.1 µM (inactive).

And the GI50 [18]?
Its GI50 is 2.18 µM (inactive).

What about the GI50 [9] of the same compound?
The GI50 was 5.25 µM (inactive).

What about the GI50 [10] of the same compound?
Its GI50 is 5.22 µM (inactive).

And the GI50 [11]?
The GI50 was 7.21 µM (inactive).

What about the GI50 [12] of the same compound?
Its GI50 is 4.54 µM (inactive).

And the GI50 [13]?
Its GI50 is 12.9 µM (inactive).

What about the GI50 [14] of the same compound?
The GI50 was 5.24 µM (inactive).

And the GI50 [15]?
Its GI50 is 16.9 µM (inactive).

And the GI50 [16]?
The GI50 was 6.34 µM (inactive).

What about the GI50 [17] of the same compound?
Its GI50 is 10.2 µM (inactive).

`Nc1sccc1S(=O)(=O)c1ccsc1N` was tested. Which GI50 [1] did it give?
Its GI50 is > 100 µM (inactive).

And the GI50 [2]?
Its GI50 is > 100 µM (inactive).

And the GI50 [3]?
The GI50 was > 100 µM (inactive).

And the GI50 [4]?
Its GI50 is > 100 µM (inactive).

What about the GI50 [5] of the same compound?
The GI50 was > 100 µM (inactive).

And the GI50 [6]?
The GI50 was > 100 µM (inactive).

What about the GI50 [7] of the same compound?
Its GI50 is > 100 µM (inactive).

What about the GI50 [18] of the same compound?
Its GI50 is > 100 µM (inactive).

What about the GI50 [9] of the same compound?
The GI50 was > 100 µM (inactive).

And the GI50 [10]?
Its GI50 is > 100 µM (inactive).

What about the GI50 [11] of the same compound?
The GI50 was > 100 µM (inactive).

And the GI50 [12]?
The GI50 was > 100 µM (inactive).

What about the GI50 [13] of the same compound?
Its GI50 is > 100 µM (inactive).

And the GI50 [14]?
The GI50 was > 100 µM (inactive).

And the GI50 [15]?
Its GI50 is > 100 µM (inactive).

What about the GI50 [16] of the same compound?
Its GI50 is > 100 µM (inactive).

And the GI50 [17]?
Its GI50 is > 100 µM (inactive).
